US20040042984A1, “Skin whitening composition containing arbutin and glucosidase as active ingredients” (priority 2001, published 2004)

Assays:
[1] = Stability of the mixed composition by decoloration (absorbance at 400 nm); assay type: physicochemical; conditions: for Absorbance (400 nm): 100 mM, reacted 37° C. 10 minutes pH 5.0, TCA, supernatant incubated at 37° C. for 24 hours; for Discoloration rate (% of decoloring of hydroquinone solution): hydroquinone solution regarded as 100%, 37° C. for 24 hours
Experimental: The absorbency was measured at 400 nm and the degree of discoloring can be expressed in the ratio of the extent of arbutin solution to that of hydroquinone solution.
The formula stability of arbutin-glucosidase mixed formula compared with the hydroquinone only formula was examined by the decoloration. 100 mM arbutin and each 1, 10 and 20 unit/ml glucosidase were reacted in 1 ml of sodium acetate buffer (pH 5.0) at 37° C. for 10 minutes. The reaction was terminated by cooling down in the ice water. Then its mixed 1 ml of cold 20% Trichloroacetic acid (TCA) was added to remove glucosidase activity. The mixture was centrifuged at 12000 rpm. The supernatant solution incubated at 37° C. for 24 hours and the absorbency was measured at […]. The degree of decoloration of hydroquinone was regarded as 100% and the ratio of other samples compared to hydroquinone were calculated. As the control, 100 mM arbutin and 100 mM hydroquinone solution (sigma, USA) was used.

[2] = system: skin of the lower part of the volunteers' arms; test: Occlusive patch test for primary skin irritation; assay type: in vivo, human; design: Response 24 h / Response 48 h: key to the marks not given beside the values; conditions: for skin irritation (in words): occlusive patch test
Experimental: In another preferred embodiments of this invention, the safety of this composition was tested by skin-irritation against the occlusive patch applied to healthy-adult volunteers. […] It is interpreted that the skin is more adaptable to the gradually increasing amount of irritant than the high concentration of irritant at a time.
The occlusive patch test was performed to examine skin irritation of the mixture of arbutin and glucosidase by 30 healthy adults. The test patches containing the solution of arbutin and glucosidase of preferred embodiment 2 were applied to the lower part of the volunteers' arms. After 24 hours, the patches were removed. The status of skin was observed from 30 minutes to 48 hours after removing the patches, and the degree of irritation has been classified as described in Table 3a.

SMILES | Absorbance (400 nm) [1] | Discoloration rate (% of decoloring of hydroquinone solution) [1] [%] | skin irritation (in words) [2] | skin irritation (in words) ([2]; listed as hydroquinone composition) | Response 24 h ([2]; occlusive patch, 30 healthy adults, 24 h) | Response 48 h ([2]; occlusive patch, 30 healthy adults, 48 h)
OC[C@H]1O[C@@H](Oc2ccc(O)cc2)[C@H](O)[C@@H](O)[C@@H]1O [Arbutin solution, Arbutin] | 0.005 | 1.40 |  |  |  | 
Oc1ccc(O)cc1 [Hydroquinone solution, Hydroquinone] | 0.356 | 100 | very strong skin irritation | showed the positive irritation | +++ | +++
